{"source": "BindingDB's records for doi:10.1016/j.bmcl.2016.09.047", "about": "(Boehringer Ingelheim Pharmaceuticals, 2016)", "note": "“And” between values parts separate entries of the source, which are not always exact repeats. Equal values may be shown once.", "data": [{"target": "not listed separately", "experiment": "Antagonist activity at human CCR10 expressed in mouse BA/F3 cells assessed as inhibition of human CCL27-dependent chemotaxis", "values": [{"smiles": "Cc1ccc(S(=O)(=O)NC(CCn2cccc2C#N)C(=O)N2CCC(C)CC2)c(C)c1N", "note": "(centres undefined)", "IC50": "79 nM"}, {"smiles": "CC1CCN(C(=O)C(CCn2ccnc2[N+](=O)[O-])NS(=O)(=O)c2cc(Cl)c(N)c(Cl)c2)CC1", "note": "(centres undefined)", "IC50": "53 nM and 50 nM"}, {"smiles": "CC1CCN(C(=O)C(CCn2ccnc2Cl)NS(=O)(=O)c2cc(Cl)c(N)c(Cl)c2)CC1", "note": "(centres undefined)", "IC50": "251 nM"}, {"smiles": "CC1CCN(C(=O)C(CCn2cccc2C#N)NS(=O)(=O)c2ccc3cc[nH]c3c2)CC1", "note": "(centres undefined)", "IC50": "16 nM"}, {"smiles": "CC1CCN(C(=O)C(CCn2cccn2)NS(=O)(=O)c2cc(Cl)c(N)c(Cl)c2)CC1", "note": "(centres undefined)", "IC50": "1260 nM"}, {"smiles": "CC1CCN(C(=O)[C@@H](CCc2ccccc2)NS(=O)(=O)c2cc(Cl)c(N)c(Cl)c2)CC1", "IC50": "501 nM"}, {"smiles": "CC1CCN(C(=O)C(CCn2cccc2C#N)NS(=O)(=O)c2ccc3[nH]ccc3c2)CC1", "note": "(centres undefined)", "IC50": "13 nM"}, {"smiles": "CC1CCN(C(=O)C(CCn2nccn2)NS(=O)(=O)c2cc(Cl)c(N)c(Cl)c2)CC1", "note": "(centres undefined)", "IC50": "1260 nM"}]}, {"target": "T1, C-C chemokine receptor type 10 (Homo sapiens, UniProt P46092)", "T1 sequence (P46092 whole entry)": "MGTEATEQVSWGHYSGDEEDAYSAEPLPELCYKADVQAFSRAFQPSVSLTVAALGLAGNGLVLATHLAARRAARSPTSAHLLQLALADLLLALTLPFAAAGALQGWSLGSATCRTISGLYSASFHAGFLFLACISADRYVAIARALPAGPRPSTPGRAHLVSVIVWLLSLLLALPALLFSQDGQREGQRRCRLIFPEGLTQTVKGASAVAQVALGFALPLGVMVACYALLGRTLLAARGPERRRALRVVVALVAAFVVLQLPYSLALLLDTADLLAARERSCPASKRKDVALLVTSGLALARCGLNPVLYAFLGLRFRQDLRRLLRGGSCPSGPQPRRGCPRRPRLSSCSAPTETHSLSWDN", "experiment": "Antagonist activity at human CCR10 expressed in mouse BA/F3 cells assessed as inhibition of human CCL27-dependent chemotaxis", "units": {"IC50": "nM"}, "values": [{"smiles": "CC1CCN(C(=O)C(CCn2cccc2C#N)NS(=O)(=O)c2cc(Cl)c(N)c(Cl)c2)CC1", "note": "(centres undefined)", "IC50": 16}]}]}
